System: Rd 13 (DNA, aptamer) CGGGGGGAGGCGGAGGGAGGACTGGGGCTTCATTGACGTTCTTCACAGTAGGGGTAAGGGCTTAGGTGGTTGGTGCCTG
Experiment: competitive fluorescence anisotropy
Settings: 140 mM Na+, 2 mM K+, 5 mM Mg2+, 2 mM Ca2+; 20 mM Tris pH 7.4; PosBD displaced; 1,000 pmol drug in 125 μl; less than posaconazole

OC(Cn1cncn1)(Cn1cncn1)c1ccc(F)cc1F
binding: weak
